The text below walks through data of paper PMC6753678, “Fueling Open Innovation for Malaria Transmission-Blocking Drugs: Hundreds of Molecules Targeting Early Parasite Mosquito Stages” (Frontiers in Microbiology, 2019).

In series [1] the test system is P. falciparum female gametocytes. Set-up: method as in Miguel-Blanco et al 2017. The settings on record: TCAMS library screen; ref Miguel-Blanco et al 2017; read-out: Pf FGAA IC50; cited from earlier work.
Series [2] shares this test system. In words: P. falciparum female gametogenesis assay (Pf FGAA). The conditions noted are these: 1: YES; 0: NO.
Series [3] has as its system HepG2 cells. The settings on record: HepG2 value reported with Pf FGAA screen; ref Miguel-Blanco et al 2017; cited from earlier work.

pIC50: −log10 of the molar value. Bounds are passed on as bounds.

For `Br.Oc1ccc(CCNCCCCCCNCCc2ccc(-c3ccccc3)cc2)cc1O` [TCMDC-131268], in series [1], the pIC50 is 4.96. Further, the “Is compound selective in assay? Pf FGAA active?” value (shortened to “Is compound selective”) in series [2] is given as 0 (0: NO). Besides, the “HepG2 cytoxicity (Pf FGAA screen)” value in series [3] is recorded as 13.18 µM.

Turning to `CN(C)CCN(C)Cc1ccc(-c2ccc3c(Nc4ccc(Oc5ccccn5)cc4)ccnc3c2)o1` [TCMDC-138426], in series [1], the pIC50 is 5.69. The “Is compound selective” value in series [2] was 0 (0: NO). For the same compound, the “HepG2 cytoxicity (Pf FGAA screen)” value in series [3] is 5.37 µM.

Regarding `Cc1cc(-c2ccc(CNC3Cc4ccccc4C3)cc2)ccc1S(=O)(=O)NCCN1CCCC1.O=C(O)C(F)(F)F` [TCMDC-132243], the pIC50 in series [1] is 5.74. Moreover, in series [2], the “Is compound selective” value is reported as 0 (0: NO). In addition, the “HepG2 cytoxicity (Pf FGAA screen)” value in series [3] is listed as 5.31 µM.

For `Cc1cccc2nc(-c3ccc(-c4ccc(CNCCN5CCNCC5)cc4)s3)[nH]c12.O=C(O)C(F)(F)F` [TCMDC-132870], in series [1], the pIC50 was 5.82. Moreover, the “Is compound selective” value in series [2] is given as 0 (0: NO). For the same compound, the “HepG2 cytoxicity (Pf FGAA screen)” value in series [3] is 14.29 µM.

For `O=C(O)C(F)(F)F.O=S(=O)(NCCN1CCCC1)c1ccc(-c2cccc(CNC3Cc4ccccc4C3)c2)s1` [TCMDC-132217], the pIC50 in series [1] was 5.89. In series [2], the “Is compound selective” value is 0 (0: NO). Besides, the “HepG2 cytoxicity (Pf FGAA screen)” value in series [3] is given as 5.50 µM.

Take `OCCN1CCN(c2ccc(Nc3ccnc4cc5ccccc5cc34)cc2)CC1` [TCMDC-123915]: in series [1], the pIC50 was 5.48. In addition, the “Is compound selective” value in series [2] is 0 (0: NO). Also, the “HepG2 cytoxicity (Pf FGAA screen)” value in series [3] was 5.43 µM.

On to `CCCCN(CCCC)CCCCNc1c2ccc(Cl)cc2nc2ccc(OC)cc12.Cl` [TCMDC-137460], for which the pIC50 in series [1] was 5.71. Further, in series [2], the “Is compound selective” value is on record as 0 (0: NO). Moreover, the “HepG2 cytoxicity (Pf FGAA screen)” value in series [3] is recorded as 4.73 µM.

Regarding `CC(C)C1=CC(=NOS(=O)(=O)c2ccccc2)C=C(C(C)C)C1=O` [TCMDC-124172], the pIC50 in series [1] was 6.06. In series [2], the “Is compound selective” value is reported as 1 (1: YES). The “HepG2 cytoxicity (Pf FGAA screen)” value in series [3] is 21.70 µM.

For `COc1ccc(NC(=O)Nc2ccc(Nc3nc(C)cc(N4CCCC4)n3)cc2)cc1` [TCMDC-124958], the negative logarithm of the IC50 (pIC50) in series [1] was 5.97. The “Is compound selective” value in series [2] is 1 (1: YES). Moreover, the “HepG2 cytoxicity (Pf FGAA screen)” value in series [3] is on record as 11.89 µM.

With `O=S(=O)(Nc1cccc(F)c1CNCc1ccccn1)c1ccc(Cl)c(Cl)c1` [TCMDC-132598], in series [1], the pIC50 was 5.87. In addition, the “Is compound selective” value in series [2] was 1 (1: YES). For the same compound, the “HepG2 cytoxicity (Pf FGAA screen)” value in series [3] is 20.42 µM.

Take `O=C(O)C(F)(F)F.O=S(=O)(NCCN1CCCC1)c1ccc(-c2cccc(CNC3Cc4ccccc4C3)c2)cc1` [TCMDC-132215]: in series [1], the negative logarithm of the IC50 (pIC50) is 5.60. In addition, in series [2], the “Is compound selective” value is listed as 0 (0: NO). Further, the “HepG2 cytoxicity (Pf FGAA screen)” value in series [3] is on record as 6.03 µM.

Take `Nc1nc(N)c2c(ccc3[nH]c(-c4ccccc4Cl)nc32)n1` [TCMDC-137840]: the pIC50 in series [1] was 5.35. In series [2], the “Is compound selective” value was 0 (0: NO). In series [3], the “HepG2 cytoxicity (Pf FGAA screen)” value was 2.32 µM.

Consider `Cl.N[C@@H](CCNC1CCN(c2cccc(C(F)(F)F)c2)CC1)Cc1ccc(F)c(F)c1` [TCMDC-132301], for which the pIC50 in series [1] is 6.36. Further, in series [2], the “Is compound selective” value is 0 (0: NO). Further, the “HepG2 cytoxicity (Pf FGAA screen)” value in series [3] was 3.76 µM.

With `CCc1cc2c(Sc3nnc(N)s3)ncnc2s1` [TCMDC-123993], in series [1], the pIC50 is 6.14. Also, the “Is compound selective” value in series [2] is 1 (1: YES). In addition, the “HepG2 cytoxicity (Pf FGAA screen)” value in series [3] is recorded as 32.30 µM.

As for `Clc1ccc(Nc2nc3ccc(Cl)cc3nc2Nc2ccc(Cl)cc2)cc1` [TCMDC-137772], the pIC50 in series [1] was 5.72. The “Is compound selective” value in series [2] is 0 (0: NO). For the same compound, the “HepG2 cytoxicity (Pf FGAA screen)” value in series [3] is on record as 7.86 µM.

Take `CNCCNCc1ccc(-c2ccc(-c3nc4cc(C(F)(F)F)ccc4[nH]3)s2)cc1.O=C(O)C(F)(F)F` [TCMDC-132838]: the pIC50 in series [1] was 5.89. Besides, in series [2], the “Is compound selective” value was 0 (0: NO). The “HepG2 cytoxicity (Pf FGAA screen)” value in series [3] was 6.10 µM.

Take `CCc1ccccc1-c1csc(C(=O)NCC2CCN(Cc3ccc(C(C)(C)C)cc3)C2)c1.O=C(O)C(F)(F)F` (stereo not drawn) [TCMDC-134448]: in series [1], the pIC50 was 5.92. For the same compound, the “Is compound selective” value in series [2] was 0 (0: NO). Also, the “HepG2 cytoxicity (Pf FGAA screen)” value in series [3] is on record as 7.67 µM.

For `COc1ccc2ccccc2c1CCCCN1CCN(CC(c2ccc(F)cc2)N2CCC2)CC1.O=C(O)C(F)(F)F` (stereo not drawn) [TCMDC-135867], the pIC50 in series [1] is 5.23. Besides, the “Is compound selective” value in series [2] is recorded as 0 (0: NO). Besides, the “HepG2 cytoxicity (Pf FGAA screen)” value in series [3] is 4.37 µM.

In the case of `O=C(NCC1CCN(Cc2cccc(C(F)(F)F)c2)C1)c1cc(-c2cccc(C(F)(F)F)c2)cs1.O=C(O)C(F)(F)F` (stereo not drawn) [TCMDC-134483], the pIC50 in series [1] is 5.78. In addition, in series [2], the “Is compound selective” value is reported as 0 (0: NO). Further, in series [3], the “HepG2 cytoxicity (Pf FGAA screen)” value was 16.22 µM.

Consider `FC(F)(F)c1ccc2[nH]c(-c3ccc(-c4ccc(CNCCN5CCNCC5)cc4)cc3)nc2c1.O=C(O)C(F)(F)F` [TCMDC-132865], for which the pIC50 in series [1] is 5.85. Further, in series [2], the “Is compound selective” value was 1 (1: YES). In addition, in series [3], the “HepG2 cytoxicity (Pf FGAA screen)” value is recorded as 16.43 µM.

Regarding `CC(CO)(CO)NCc1cc2c3ccccc3c(CNC(C)(CO)CO)cc2c2ccccc12.CS(=O)(=O)O` [TCMDC-137752], in series [1], the negative logarithm of the IC50 (pIC50) was 5.35. Also, in series [2], the “Is compound selective” value is 0 (0: NO). Besides, the “HepG2 cytoxicity (Pf FGAA screen)” value in series [3] is 7.33 µM.

Consider `CC(C)N1CCN(C(CN2CCN(CCCOc3ccc(-c4ccccc4)cc3)CC2)c2ccc(F)cc2)CC1.Cl` (stereo not drawn) [TCMDC-135497], for which the pIC50 in series [1] is 5.85. Also, the “Is compound selective” value in series [2] is 0 (0: NO). Also, the “HepG2 cytoxicity (Pf FGAA screen)” value in series [3] is 2.29 µM.

Regarding `Clc1ccc(/N=C(/NCCCCCCCN/C(=N\c2ccc(Cl)cc2)Nc2ccc(Cl)cc2)Nc2ccc(Cl)cc2)cc1` [TCMDC-137529], in series [1], the pIC50 was 6.24. For the same compound, the “Is compound selective” value in series [2] is 0 (0: NO). Besides, the “HepG2 cytoxicity (Pf FGAA screen)” value in series [3] is listed as 2.00 µM.

`CC(C)(C)OC(=O)NCc1ccc(Nc2nnc(-c3cccc(C(=O)NCc4cc(C(F)(F)F)cc(C(F)(F)F)c4)c3)o2)cc1` [TCMDC-135229]: in series [1], the pIC50 was 5.50. For the same compound, the “Is compound selective” value in series [2] is reported as 0 (0: NO). Further, in series [3], the “HepG2 cytoxicity (Pf FGAA screen)” value is on record as 21.43 µM.

`COc1cc(/C=C(\C2=NC(=O)CS2)c2nc3cccnc3n2C)ccc1O` [TCMDC-135917]: the pIC50 in series [1] was 6.14. Besides, the “Is compound selective” value in series [2] is listed as 1 (1: YES). Also, the “HepG2 cytoxicity (Pf FGAA screen)” value in series [3] was 21.14 µM.

Take `c1ccn2c(Sc3ncnc4sccc34)ncc2c1` [TCMDC-124602]: in series [1], the pIC50 was 6.62. The “Is compound selective” value in series [2] is recorded as 1 (1: YES). Further, in series [3], the “HepG2 cytoxicity (Pf FGAA screen)” value was over 100 µM.

For the compound `COc1ccc(N2CCN(CCCCNCc3ccc(NC(=O)c4cc(Cl)cc(Cl)c4)cc3)CC2)c(OC)c1` [TCMDC-138226], the pIC50 in series [1] was 5.51. Also, the “Is compound selective” value in series [2] is reported as 0 (0: NO). Further, the “HepG2 cytoxicity (Pf FGAA screen)” value in series [3] is reported as 4.42 µM.
